In patent publication EP4562003B1, “NOVEL 7-SUBSTITUTED INDOLE SULFONAMIDE DERIVATIVES” (F. Hoffmann-La Roche AG, priority 2022, dated 2024):

target: human GPR17 short isoform (Homo sapiens, UniProt Q13304); test: GPR17 cAMP assay (TR-FRET cAMP quantification, antagonist mode); format: cell-based; details: CHO-K1 cells stably expressing human GPR17 short isoform; EC80 of agonist MDL29,951; forskolin 15µM; IBMX 0.5mM; 30 minutes at room temperature; read-out: hGPR17 cAMP IC50
Procedure, shortened: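 CHO-K1 cells stably expressing untagged human GPR17 short isoform, 10'000 cells/well in HBSS/10mM HEPES/0.1% BSA pH 7.4. Compounds added with EC80 MDL29,951 plus 0.5mM IBMX, then 15µM forskolin; 30 min at room temperature. cAMP read by TR-FRET after 90 min lysis; normalized to reference antagonist maximal activity, sigmoidal fit.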

Chain of human GPR17 short isoform (Q13304 29-367): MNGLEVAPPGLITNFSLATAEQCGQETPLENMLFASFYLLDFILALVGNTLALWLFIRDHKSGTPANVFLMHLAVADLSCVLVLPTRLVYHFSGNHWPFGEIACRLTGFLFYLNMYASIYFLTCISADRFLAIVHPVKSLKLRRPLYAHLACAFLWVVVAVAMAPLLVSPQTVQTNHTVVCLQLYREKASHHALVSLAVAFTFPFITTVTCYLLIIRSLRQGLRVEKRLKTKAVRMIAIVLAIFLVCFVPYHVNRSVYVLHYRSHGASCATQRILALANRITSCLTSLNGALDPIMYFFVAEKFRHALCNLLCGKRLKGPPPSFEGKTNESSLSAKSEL

**Q.** `COc1nc(NS(=O)(=O)c2c[nH]c3c(-c4ncccn4)c(Cl)ccc23)nc(OC)c1C1CC1C#N` (centres unmarked) [Example 24, 6-chloro-N-[5-(2-cyanocyclopropyl)-4,6-dimethoxy-pyrimidin-2-yl]-7-(2-pyrimidyl)-1H-indole-3-sulfonamide] was tested. Which IC50 did it give?
**A.** 61 nM

**Q.** `COc1nc(NS(=O)(=O)c2c[nH]c3c(-c4cnccn4)c(C)ccc23)nc(OC)c1OCC(F)F` [Example 58, N-[5-(2,2-difluoroethoxy)-4,6-dimethoxy-pyrimidin-2-yl]-6-methyl-7-pyrazin-2-yl-1H-indole-3-sulfonamide] was tested. Which IC50 did it give?
**A.** 51 nM

**Q.** With `COc1nc(NS(=O)(=O)c2c[nH]c3c(-c4ncn(C)n4)c(Cl)ccc23)nc(OC)c1OCC(F)F` [Example 104, 6-chloro-N-[5-(2,2-difluoroethoxy)-4,6-dimethoxy-pyrimidin-2-yl]-7-(1-methyl-1,2,4-triazol-3-yl)-1H-indole-3-sulfonamide] as the compound, how does the IC50 read?
**A.** 113 nM

**Q.** How did the IC50 turn out when `COc1nc(NS(=O)(=O)c2c[nH]c3c(-c4ccccc4)c(Cl)ccc23)nc(OC)c1OCC(F)F` [Example 70, 6-chloro-N-[5-(2,2-difluoroethoxy)-4,6-dimethoxy-pyrimidin-2-yl]-7-phenyl-1H-indole-3-sulfonamide] was run?
**A.** 102 nM

**Q.** `COc1nc(NS(=O)(=O)c2c[nH]c3c(-c4cnc(Cl)cn4)c(Cl)ccc23)nc(OC)c1CC(F)F` [Example 91, 6-chloro-7-(5-chloropyrazin-2-yl)-N-[5-(2,2-difluoroethyl)-4,6-dimethoxy-pyrimidin-2-yl]-1H-indole-3-sulfonamide] was tested. Which IC50 did it give?
**A.** 225 nM

**Q.** Which IC50 does the source give for `COc1nc(NS(=O)(=O)c2c[nH]c3c(-c4nccnc4C)cccc23)nc(OC)c1OCC(F)F` [Example 54, N-[5-(2,2-difluoroethoxy)-4,6-dimethoxy-pyrimidin-2-yl]-7-(3-methylpyrazin-2-yl)-1H-indole-3-sulfonamide] here?
**A.** 64 nM

**Q.** With `COc1nc(NS(=O)(=O)c2c[nH]c3c(-c4ncn(C)c4C)c(Cl)ccc23)nc(OC)c1OCC(F)F` [Example 46, 6-chloro-N-[5-(2,2-difluoroethoxy)-4,6-dimethoxy-pyrimidin-2-yl]-7-(1,5-dimethylimidazol-4-yl)-1H-indole-3-sulfonamide] as the compound, how does the IC50 read?
**A.** 34 nM

**Q.** For `COc1nc(NS(=O)(=O)c2c[nH]c3c(-c4cscn4)c(Cl)ccc23)nc(OC)c1OC(F)F` [Example 120, 6-chloro-N-[5-(difluoromethoxy)-4,6-dimethoxy-pyrimidin-2-yl]-7-thiazol-4-yl-1H-indole-3-sulfonamide], which IC50 is on record?
**A.** 149 nM

**Q.** Which IC50 does the source give for `COc1nc(NS(=O)(=O)c2c[nH]c3c(-c4ccncn4)c(Cl)ccc23)nc(OC)c1OCC(F)F` [Example 77, 6-chloro-N-[5-(2,2-difluoroethoxy)-4,6-dimethoxy-pyrimidin-2-yl]-7-(4-pyrimidyl)-1H-indole-3-sulfonamide] here?
**A.** 24 nM

**Q.** How did the IC50 turn out when `COc1nc(NS(=O)(=O)c2c[nH]c3c(-c4cnc(C)cn4)c(Cl)ccc23)nc(OC)c1OC(F)F` [Example 83, 6-chloro-N-[5-(difluoromethoxy)-4,6-dimethoxy-pyrimidin-2-yl]-7-(5-methylpyrazin-2-yl)-1H-indole-3-sulfonamide] was run?
**A.** 97 nM

**Q.** Which IC50 does the source give for `COc1nc(NS(=O)(=O)c2c[nH]c3c(-c4cc(C)ncn4)c(Cl)ccc23)nc(OC)c1OCC(F)F` [Example 96, 6-chloro-N-[5-(2,2-difluoroethoxy)-4,6-dimethoxy-pyrimidin-2-yl]-7-(6-methylpyrimidin-4-yl)-1H-indole-3-sulfonamide] here?
**A.** 32 nM

**Q.** With `COc1nc(NS(=O)(=O)c2c[nH]c3c(-c4ncccn4)c(C(F)F)ccc23)nc(OC)c1OC(F)F` [Example 50, N-[5-(difluoromethoxy)-4,6-dimethoxy-pyrimidin-2-yl]-6-(difluoromethyl)-7-(2-pyrimidyl)-1H-indole-3-sulfonamide] as the compound, how does the IC50 read?
**A.** 288 nM

**Q.** With `COc1nc(NS(=O)(=O)c2c[nH]c3c(-c4ncccc4C)c(Cl)ccc23)nc(OC)c1OCC(F)F` [Example 100, 6-chloro-N-[5-(2,2-difluoroethoxy)-4,6-dimethoxy-pyrimidin-2-yl]-7-(3-methyl-2-pyridyl)-1H-indole-3-sulfonamide] as the compound, how does the IC50 read?
**A.** 40 nM

**Q.** For `COc1nc(NS(=O)(=O)c2c[nH]c3c(-c4nccn4C)c(Cl)ccc23)nc(OC)c1OCC(F)F` [Example 8, 6-chloro-N-[5-(2,2-difluoroethoxy)-4,6-dimethoxy-pyrimidin-2-yl]-7-(1-methylimidazol-2-yl)-1H-indole-3-sulfonamide], which IC50 is on record?
**A.** 39 nM

**Q.** Which IC50 does the source give for `COc1nc(NS(=O)(=O)c2c[nH]c3c(-c4cnccn4)c(F)ccc23)nc(OC)c1OCCF` [Example 32, 6-fluoro-N-[5-(2-fluoroethoxy)-4,6-dimethoxy-pyrimidin-2-yl]-7-pyrazin-2-yl-1H-indole-3-sulfonamide] here?
**A.** 129 nM

**Q.** With `COc1nc(NS(=O)(=O)c2c[nH]c3c(-c4ccccc4)c(Cl)ccc23)nc(OC)c1CC(F)F` [Example 71, 6-chloro-N-[5-(2,2-difluoroethyl)-4,6-dimethoxy-pyrimidin-2-yl]-7-phenyl-1H-indole-3-sulfonamide] as the compound, how does the IC50 read?
**A.** 99 nM

**Q.** With `COc1nc(NS(=O)(=O)c2c[nH]c3c(-c4cccnn4)c(Cl)ccc23)nc(OC)c1CC(F)F` [Example 6, 6-chloro-N-[5-(2,2-difluoroethyl)-4,6-dimethoxy-pyrimidin-2-yl]-7-pyridazin-3-yl-1H-indole-3-sulfonamide] as the compound, how does the IC50 read?
**A.** 42 nM

**Q.** `COc1nc(NS(=O)(=O)c2c[nH]c3c(-c4ccnc(C)n4)c(Cl)ccc23)nc(OC)c1OCC(F)F` [Example 62, 6-chloro-N-[5-(2,2-difluoroethoxy)-4,6-dimethoxy-pyrimidin-2-yl]-7-(2-methylpyrimidin-4-yl)-1H-indole-3-sulfonamide] was tested. Which IC50 did it give?
**A.** 37 nM

**Q.** Which IC50 does the source give for `COc1nc(NS(=O)(=O)c2c[nH]c3c(-c4nccnc4C)c(Cl)ccc23)nc(OC)c1OCC(F)F` [Example 73, 6-chloro-N-[5-(2,2-difluoroethoxy)-4,6-dimethoxy-pyrimidin-2-yl]-7-(3-methylpyrazin-2-yl)-1H-indole-3-sulfonamide] here?
**A.** 37 nM

**Q.** For `COc1nc(NS(=O)(=O)c2c[nH]c3c(-c4ncccn4)c(C(F)F)ccc23)nc(OC)c1OCC(F)F` [Example 49, N-[5-(2,2-difluoroethoxy)-4,6-dimethoxy-pyrimidin-2-yl]-6-(difluoromethyl)-7-(2-pyrimidyl)-1H-indole-3-sulfonamide], which IC50 is on record?
**A.** 301 nM

**Q.** `COc1nc(NS(=O)(=O)c2c[nH]c3c(-c4cccc(C)n4)c(Cl)ccc23)nc(OC)c1CC(F)F` [Example 93, 6-chloro-N-[5-(2,2-difluoroethyl)-4,6-dimethoxy-pyrimidin-2-yl]-7-(6-methyl-2-pyridyl)-1H-indole-3-sulfonamide] was tested. Which IC50 did it give?
**A.** 24 nM

**Q.** With `COc1nc(NS(=O)(=O)c2c[nH]c3c(-c4ncccc4C)c(Cl)ccc23)nc(OC)c1OC(F)F` [Example 103, 6-chloro-N-[5-(difluoromethoxy)-4,6-dimethoxy-pyrimidin-2-yl]-7-(3-methyl-2-pyridyl)-1H-indole-3-sulfonamide] as the compound, how does the IC50 read?
**A.** 54 nM

**Q.** `COc1nc(NS(=O)(=O)c2c[nH]c3c(-c4ncccn4)c(C)ccc23)nc(OC)c1CC(F)F` [Example 52, N-[5-(2,2-difluoroethyl)-4,6-dimethoxy-pyrimidin-2-yl]-6-methyl-7-(2-pyrimidyl)-1H-indole-3-sulfonamide] was tested. Which IC50 did it give?
**A.** 22 nM
